According to patent US20260028326A1, “COMPOUND BASED ON ISOINDOLINE-SUBSTITUTED GLUTARIMIDE BACKBONE AND USE THEREOF” (GLUETACS THERAPEUTICS (SHANGHAI) CO., LTD., priority 2022, published 2026):

What was measured:
IKZF1 protein = IKZF1 protein (Homo sapiens (Human), UniProt Q13422+Q96SW2); test: Western-blot assay of substrate protein degradation in hPBMC, IKZF1; format: cell-based; conditions: for residual substrate protein level, IKZF1: hPBMC cells, compound 500 nM, 24 hours, Western blot
Mino cells = test: Tumor cell proliferation IC50 (CCK-8), Mino; conditions: Homo sapiens, 72 h, read-out: IC50 for inhibiting the proliferation of tumor cells, Mino;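 also: cell viability assessed with CCK-8 reagent after compound exposure, IC50 derived from plotted growth inhibition curves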
Description: (§1) The tumor cells used herein were cultured in a cell culture medium listed in table A at 37° C. in an incubator with 5% CO2.
(§2) After the cells were treated with the compounds of the present disclosure for a period of time, the cell viability detection reagent was added to the culture medium for cell viability assessment according to the instructions provided with the CCK-8 kit. […] The growth inhibition of the compounds of the present disclosure on cells was plotted by Prism Graphpad software, and the IC50 values of the compounds of the present disclosure were calculated therefrom.

IKZF3 protein = IKZF3 protein (Homo sapiens (Human), UniProt Q96SW2+Q9UKT9); test: Western-blot assay of substrate protein degradation in hPBMC, IKZF3; format: cell-based; conditions: for residual substrate protein level, IKZF3: hPBMC cells, compound 500 nM, 24 hours, Western blot
GSPT1 protein = GSPT1 protein (Homo sapiens (Human), UniProt P15170+Q96SW2); test: Western-blot assay of substrate protein degradation in hPBMC, GSPT1; format: cell-based; conditions: for residual substrate protein level, GSPT1: hPBMC cells, compound 500 nM, 24 hours, Western blot
MM.1S cells = test: Tumor cell proliferation IC50 (CCK-8), MM.1S; conditions: Homo sapiens, MM1.S, 72 h, read-out: IC50 for inhibiting the proliferation of tumor cells, MM.1S;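 also: viability of cultured cells read by CCK-8 reagent after compound exposure, growth inhibition curves fitted to derive IC50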
CCRF-CEM cells = test: Tumor cell proliferation IC50 (CCK-8), CCRF-CEM; conditions: Homo sapiens, 96 h, read-out: IC50 for inhibiting the proliferation of tumor cells, CCRF-CEM;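 also: cell viability measured with CCK-8 reagent after compound treatment, IC50 taken from plotted growth inhibition curves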
Description: as §1, §2

[1] = target: human Cereblon WT GST-tagged protein (Homo sapiens (Human), UniProt Q96SW2); test: CRBN-binding affinity, HTRF (CEREBLON BINDING kit)
How it was run: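 GST-tagged human WT Cereblon incubated with compound, then Thalidomide-Re tracer and anti-GST Eu antibody added. Displacement read by HTRF, reported as CRBN binding inhibition rate against blank control wells without protein.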

Daudi cells = test: Tumor cell proliferation IC50 (CCK-8), Daudi; conditions: Homo sapiens, read-out: IC50 for inhibiting the proliferation of tumor cells, Daudi;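 also: cell viability read with CCK-8 reagent after compound exposure of Daudi cells, IC50 derived from plotted growth inhibition curves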
[2] = hPBMC, 24 h, serially diluted 0.03-1000 nM

IKZF3 protein, sequence (Q9UKT9 whole entry): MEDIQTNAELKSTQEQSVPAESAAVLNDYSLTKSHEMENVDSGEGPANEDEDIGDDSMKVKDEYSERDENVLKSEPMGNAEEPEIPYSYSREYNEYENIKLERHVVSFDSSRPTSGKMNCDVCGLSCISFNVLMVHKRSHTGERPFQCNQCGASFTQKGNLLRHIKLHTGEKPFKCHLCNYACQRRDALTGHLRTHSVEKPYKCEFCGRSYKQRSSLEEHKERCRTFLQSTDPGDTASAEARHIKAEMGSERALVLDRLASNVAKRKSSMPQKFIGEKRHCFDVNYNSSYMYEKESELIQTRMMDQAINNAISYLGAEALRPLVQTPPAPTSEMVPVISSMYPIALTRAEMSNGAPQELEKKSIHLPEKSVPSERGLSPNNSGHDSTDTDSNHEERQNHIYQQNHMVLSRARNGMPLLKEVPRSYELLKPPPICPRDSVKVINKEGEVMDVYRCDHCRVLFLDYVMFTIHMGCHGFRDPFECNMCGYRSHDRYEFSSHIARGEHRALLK
IKZF3 protein, sequence (Q96SW2 whole entry): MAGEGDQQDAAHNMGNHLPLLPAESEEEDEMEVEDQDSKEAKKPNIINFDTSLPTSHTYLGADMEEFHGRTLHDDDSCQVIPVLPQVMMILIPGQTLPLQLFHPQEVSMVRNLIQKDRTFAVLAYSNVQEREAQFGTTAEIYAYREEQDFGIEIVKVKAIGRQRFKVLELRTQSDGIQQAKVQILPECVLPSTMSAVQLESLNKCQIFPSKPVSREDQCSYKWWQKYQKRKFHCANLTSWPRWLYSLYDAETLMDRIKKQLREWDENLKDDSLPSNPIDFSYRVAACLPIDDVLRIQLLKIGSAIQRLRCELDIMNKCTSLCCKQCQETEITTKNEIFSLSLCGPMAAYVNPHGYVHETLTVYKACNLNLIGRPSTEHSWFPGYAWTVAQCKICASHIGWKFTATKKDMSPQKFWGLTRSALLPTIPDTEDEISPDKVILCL
IKZF3 protein, sequence (Q16531 whole entry partner): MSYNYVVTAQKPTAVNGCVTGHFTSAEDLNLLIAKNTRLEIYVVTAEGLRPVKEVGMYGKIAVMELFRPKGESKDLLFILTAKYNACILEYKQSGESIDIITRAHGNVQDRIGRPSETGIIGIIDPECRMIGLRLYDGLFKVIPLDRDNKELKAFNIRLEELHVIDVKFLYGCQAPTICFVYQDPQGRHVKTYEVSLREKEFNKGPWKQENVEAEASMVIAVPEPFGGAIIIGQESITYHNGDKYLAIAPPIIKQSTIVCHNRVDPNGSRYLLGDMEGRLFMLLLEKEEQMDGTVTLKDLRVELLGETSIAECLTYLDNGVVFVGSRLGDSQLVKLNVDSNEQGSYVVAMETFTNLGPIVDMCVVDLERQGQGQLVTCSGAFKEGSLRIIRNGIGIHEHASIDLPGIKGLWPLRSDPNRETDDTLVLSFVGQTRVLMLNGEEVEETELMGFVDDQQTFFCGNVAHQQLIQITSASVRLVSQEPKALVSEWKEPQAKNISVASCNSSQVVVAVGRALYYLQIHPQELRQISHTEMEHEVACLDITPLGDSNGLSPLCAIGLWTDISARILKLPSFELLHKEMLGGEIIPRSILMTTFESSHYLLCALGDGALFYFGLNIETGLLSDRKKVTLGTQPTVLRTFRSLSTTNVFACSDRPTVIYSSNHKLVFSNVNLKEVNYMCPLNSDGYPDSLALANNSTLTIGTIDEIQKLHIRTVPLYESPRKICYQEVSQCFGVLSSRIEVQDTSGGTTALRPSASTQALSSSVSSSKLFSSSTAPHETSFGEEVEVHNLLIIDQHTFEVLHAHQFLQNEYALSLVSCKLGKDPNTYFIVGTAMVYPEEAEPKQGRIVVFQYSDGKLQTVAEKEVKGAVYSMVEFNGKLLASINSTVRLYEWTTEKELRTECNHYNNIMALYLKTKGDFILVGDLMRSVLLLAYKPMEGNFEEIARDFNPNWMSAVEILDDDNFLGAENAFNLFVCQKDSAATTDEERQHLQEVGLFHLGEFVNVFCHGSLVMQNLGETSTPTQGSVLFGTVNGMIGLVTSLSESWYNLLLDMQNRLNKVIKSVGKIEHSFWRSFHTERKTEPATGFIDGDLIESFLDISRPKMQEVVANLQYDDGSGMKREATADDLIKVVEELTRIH
human Cereblon WT GST-tagged protein, sequence (Q96SW2 whole entry): as the sequence (Q96SW2 whole entry) above
GSPT1 protein, sequence (P15170 whole entry): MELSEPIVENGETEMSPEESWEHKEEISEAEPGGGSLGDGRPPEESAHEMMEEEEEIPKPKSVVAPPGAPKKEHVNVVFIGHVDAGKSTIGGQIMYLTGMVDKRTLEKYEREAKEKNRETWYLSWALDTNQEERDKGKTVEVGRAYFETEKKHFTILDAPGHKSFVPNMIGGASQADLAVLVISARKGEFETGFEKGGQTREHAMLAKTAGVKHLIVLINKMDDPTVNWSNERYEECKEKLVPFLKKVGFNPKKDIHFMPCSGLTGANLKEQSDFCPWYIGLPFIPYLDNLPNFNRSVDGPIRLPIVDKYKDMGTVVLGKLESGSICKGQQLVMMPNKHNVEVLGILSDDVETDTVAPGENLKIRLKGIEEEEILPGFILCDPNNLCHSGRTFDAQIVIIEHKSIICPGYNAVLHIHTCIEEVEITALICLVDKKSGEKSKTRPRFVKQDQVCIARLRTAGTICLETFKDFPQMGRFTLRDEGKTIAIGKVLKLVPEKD
GSPT1 protein, sequence (Q96SW2 whole entry): as the sequence (Q96SW2 whole entry) above
GSPT1 protein, sequence (Q16531 whole entry partner): as the sequence (Q16531 whole entry partner) above
IKZF1 protein, sequence (Q13422 whole entry): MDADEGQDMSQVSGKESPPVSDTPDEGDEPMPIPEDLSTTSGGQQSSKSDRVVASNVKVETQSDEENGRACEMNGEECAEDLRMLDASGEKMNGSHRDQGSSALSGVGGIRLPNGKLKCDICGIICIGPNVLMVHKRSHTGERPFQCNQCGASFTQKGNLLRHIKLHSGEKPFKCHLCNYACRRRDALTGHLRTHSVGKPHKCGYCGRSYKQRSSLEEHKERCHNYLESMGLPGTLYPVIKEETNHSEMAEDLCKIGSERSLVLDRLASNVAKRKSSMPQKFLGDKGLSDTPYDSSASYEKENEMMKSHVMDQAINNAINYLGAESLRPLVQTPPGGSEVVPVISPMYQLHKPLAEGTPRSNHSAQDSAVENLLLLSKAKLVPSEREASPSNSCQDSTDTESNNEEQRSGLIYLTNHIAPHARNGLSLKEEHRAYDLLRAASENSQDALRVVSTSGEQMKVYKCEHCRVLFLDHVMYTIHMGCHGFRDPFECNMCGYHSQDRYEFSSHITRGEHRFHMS
IKZF1 protein, sequence (Q96SW2 whole entry): as the sequence (Q96SW2 whole entry) above
IKZF1 protein, sequence (Q16531 whole entry partner): as the sequence (Q16531 whole entry partner) above

Row | SMILES | residual substrate protein level, IKZF1 (IKZF1 protein) | concentration at which significant degradation effects on IKZF1 protein are exhibited (FIG. 1) (IKZF1 protein; [2]) [nM] | IC50 (Mino cells) [nM] | residual substrate protein level, IKZF3 (IKZF3 protein) | concentration at which significant degradation effects on IKZF3 protein are exhibited (FIG. 1) (IKZF3 protein; [2]) [nM] | residual substrate protein level, GSPT1 (GSPT1 protein) | concentration at which significant degradation effects on GSPT1 protein are exhibited (FIG. 1) (GSPT1 protein; [2]) [nM] | IC50 (MM.1S cells) [nM] | IC50 (CCRF-CEM cells) [nM] | IC50 [1] [nM] | IC50 (Daudi cells) [nM]
1 | O=C1CCC(N2Cc3cc(CN4CCN(Cc5ccc(-c6ccc(Cl)cc6)cc5)CC4)ccc3C2=O)C(=O)N1 (centres unmarked) [GT-05598, 3-(5-((4-((4′-chloro-[1,1′-biphenyl]-4-yl)methyl)piperazin-1-yl)methyl)-1-oxoisoindolin-2-yl)piperidine-2,6-dione] | A (A represents a residual substrate protein level of <50%) | < 3 | 10 to 50 | A (A represents a residual substrate protein level of <50%) | < 3 | B (B represents a residual substrate protein level of >50%) | < 3 | 50 to 100 | 500 to 1000 | 680 | 500 to 1000
2 | O=C1CCC(N2Cc3cc(CN4CCN(Cc5ccccc5-c5cccs5)CC4)ccc3C2=O)C(=O)N1 (centres unmarked) [GT-05519, 3-(1-oxo-5-((4-(2-(thiophen-2-yl)benzyl)piperazin-1-yl)methyl)isoindolin-2-yl)piperidine-2,6-dione] | A (A represents a residual substrate protein level of <50%) | – | < 5 | A (A represents a residual substrate protein level of <50%) | – | A (A represents a residual substrate protein level of <50%) | – | < 5 | < 5 | 410 | 5 to 10
3 | O=C1CCC(N2Cc3cc(CN4CCN(C(=O)c5ccccc5-c5ccc(Cl)cc5)CC4C(F)(F)F)ccc3C2=O)C(=O)N1 (centres unmarked) [GT-05789, 3-(5-((4-(4′-chloro-[1,1′-biphenyl]-2-carbonyl)-2-(trifluoromethyl)piperazin-1-yl)methyl)-1-oxoisoindolin-2-yl)piperidine-2,6-dione] | B (B represents a residual substrate protein level of >50%) | – | 10 to 50 | B (B represents a residual substrate protein level of >50%) | – | A (A represents a residual substrate protein level of <50%) | – | 10 to 50 | 10 to 50 | 520 | 100 to 500
4 | O=C1CCC(N2Cc3cc(CN4CCN(Cc5ccccc5-c5ccc(Cl)cn5)CC4)ccc3C2=O)C(=O)N1 (centres unmarked) [GT-05860, 3-(5-((4-(2-(5-chloropyridin-2-yl)benzyl)piperazin-1-yl)methyl)-1-oxoisoindolin-2-yl)piperidine-2,6-dione] | A (A represents a residual substrate protein level of <50%) | – | 5 to 10 | A (A represents a residual substrate protein level of <50%) | – | A (A represents a residual substrate protein level of <50%) | – | < 5 | 5 to 10 | 560 | 10 to 50
5 | CC1(C)CCC(C(=O)N2CC3(CN(Cc4ccc5c(c4)CN(C4CCC(=O)NC4=O)C5=O)C3)C2)=C(c2ccc(F)cc2)C1 (centres unmarked) [GT-05664, 3-(5-((6-(4′-fluoro-5,5-dimethyl-3,4,5,6-tetrahydro-[1,1′-biphenyl]-2-carbonyl)-2,6-diazaspiro[3.3]heptan-2-yl)methyl)-1-oxoisoindolin-2-yl)piperidine-2,6-dione] | A (A represents a residual substrate protein level of <50%) | – | 10 to 50 | A (A represents a residual substrate protein level of <50%) | – | A (A represents a residual substrate protein level of <50%) | – | 10 to 50 | 10 to 50 | 560 | 100 to 500
6 | O=C1CCC(N2Cc3cc(CN4CCN(C(=O)c5ccccc5-c5ccc(Cl)cc5)CC4)c(F)cc3C2=O)C(=O)N1 (centres unmarked) [GT-05650, 3-(5-((4-(4′-chloro-[1,1′-biphenyl]-2-carbonyl)piperazin-1-yl)methyl)-6-fluoro-1-oxoisoindolin-2-yl)piperidine-2,6-dione] | A (A represents a residual substrate protein level of <50%) | – | 50 to 100 | A (A represents a residual substrate protein level of <50%) | – | A (A represents a residual substrate protein level of <50%) | – | 10 to 50 | 10 to 50 | 940 | 100 to 500
7 | O=C1CCC(N2Cc3c(ccc(CN4CCN(Cc5ccccc5-c5ccc(F)cc5)CC4)c3F)C2=O)C(=O)N1 (centres unmarked) [GT-05602, 3-(4-fluoro-5-((4-((4′-fluoro-[1,1′-biphenyl]-2-yl)methyl)piperazin-1-yl)methyl)-1-oxoisoindolin-2-yl)piperidine-2,6-dione] | A (A represents a residual substrate protein level of <50%) | – | < 5 | A (A represents a residual substrate protein level of <50%) | – | A (A represents a residual substrate protein level of <50%) | – | < 5 | < 5 | 560 | 5 to 10
8 | CC1(C)CCC(CN2CCN(Cc3ccc4c(c3)CN(C3CCC(=O)NC3=O)C4=O)CC2)=C(c2cccs2)C1 (centres unmarked) [GT-05847, 3-(5-((4-((4,4-dimethyl-2-(thiophen-2-yl)cyclohex-1-en-1-yl)methyl)piperazin-1-yl)methyl)-1-oxoisoindolin-2-yl)piperidine-2,6-dione] | A (A represents a residual substrate protein level of <50%) | – | < 5 | A (A represents a residual substrate protein level of <50%) | – | A (A represents a residual substrate protein level of <50%) | – | < 5 | < 5 | 1000 | 10 to 50
9 | O=C1CCC(N2Cc3cc(NC4CN(Cc5ccccc5-c5ccc(Cl)cc5)C4)ccc3C2=O)C(=O)N1 (centres unmarked) [GT-05382, 3-(5-((1-((4′-chloro-[1,1′-biphenyl]-2-yl)methyl)azetidin-3-yl)amino)-1-oxoisoindolin-2-yl)piperidine-2,6-dione] | A (A represents a residual substrate protein level of <50%) | – | 10 to 50 | A (A represents a residual substrate protein level of <50%) | – | A (A represents a residual substrate protein level of <50%) | – | 10 to 50 | 100 to 500 | 660 | 100 to 500
10 | O=C1CCC(N2Cc3cc(CN4CCN(Cc5ccccc5-c5ccc(F)cc5)CC4)c(F)cc3C2=O)C(=O)N1 (centres unmarked) [GT-05603, 3-(6-fluoro-5-((4-((4′-fluoro-[1,1′-biphenyl]-2-yl)methyl)piperazin-1-yl)methyl)-1-oxoisoindolin-2-yl)piperidine-2,6-dione] | A (A represents a residual substrate protein level of <50%) | – | < 5 | A (A represents a residual substrate protein level of <50%) | – | A (A represents a residual substrate protein level of <50%) | – | < 5 | 2.5 | 940 | 5 to 10
